According to PMC12251549, “Engineering a Radiohybrid PSMA Ligand with an Albumin-Binding Moiety and Pharmacokinetic Modulation via an Albumin-Binding Competitor for Radiotheranostics” (Molecules, 2025):

Key:
[1] = test system: PSMA-expressing LNCaP cells; assay: Cellular uptake and internalization in LNCaP cells, blocking with 2-PMPA; assay type: cell-based; conditions: 2-PMPA 100 µM
Method: Cellular uptake experiments were performed according to a previous report with slight modifications. LNCaP cells expressing PSMA were cultured in RPMI 1640 medium containing 10% fetal bovine serum (FBS) and 1% penicillin–streptomycin on 6-well culture plates (containing 5 × 10^5 cells/well) for 24 h in a humidified atmosphere (5% CO2) incubator at 37 °C. After removing the medium and washing with phosphate-buffered saline (PBS) (−) once, a mixed solution of [^125I]5 and [^211At]6, [^125I]5 and [^67Ga]Ga-PSMA-617, and [^125I]5 and [^67Ga]5 in 1.0 mL of medium without FBS was added (3.7 kBq/each tracer/well). The final concentrations of the radioligands for [^125I]5, [^211At]6, and [^67Ga]5 were 45.5 pM, 0.2 pM, and 2.5 pM, respectively. These solutions containing radioligands were diluted in saline containing 0.05% (w/v) bovine serum albumin (BSA) to prevent adsorption to tubes or plates and further diluted with medium to 0.00125% as the final BSA concentration. After incubation for 10, 60, and 120 min, the medium from each well was removed, and the cells were washed twice with ice-cold PBS (−); the surface of the cells was washed twice with ice-cold 0.2 M glycine buffer (pH 3.0). The cells were lysed using a 1 M NaOH aqueous solution. The radioactivity of ^67Ga,^125I and ^211At in the 1 M NaOH aqueous solution was determined and defined as the internalized radioligand fraction using an auto well gamma counter (ARC-8001, Hitachi, Ltd., Tokyo, Japan) according to a previous paper. The radioactivity was determined with an auto well gamma counter and corrected for background radiation and physical decay during counting. A window from 16 to 69 keV was used for counting ^125I, and a window from 70 to 120 keV was used for counting ^211At. Correlation factors to eliminate any crossover of ^125I activity in the ^211At counts were determined by measuring the ^125I standard in each window. More than one week after the experiments, the radioactivity counts of ^125I were measured after the decay of ^211At. The protein amount in cells was quantified using a BCA Protein Assay Kit (Nacalai Tesque, Kyoto, Japan) according to the manufacturer’s protocol. All data were expressed as percent dose per milligram protein (%dose/mg protein). In blocking experiments, a selective inhibitor of the PSMA, (2S)-2-(phosphonomethyl)pentanedioic acid (2-PMPA) (final concentration 100 µM), was added to each well with tracers. After incubation for 10, 60, and 120 min, radioactivity and protein concentration were determined in the same manner as the experiment without the blocking agent.

[2] = Biodistribution with post-administration of albumin-binding competitor IPBA; assay type: in vivo, normal mice (ddY); conditions: normal mice, IPBA at 1 h postinjection, 10 molar equivalent of blood albumin; except in the kidney
Method: To evaluate the effects of an albumin-binding competitor (sodium salt of IPBA) in normal mice, [^125I]5 and [^211At]6 were intravenously co-administered. At 1 h postinjection of the radiolabeled compounds, IPBA (3.4 mg, 11 µmol) dissolved in saline at a 10 molar equivalent of blood albumin was administered. Mice were sacrificed at 65 min, 70 min, 2 h, 4 h, 12 h, and 24 h postinjection of [^125I]5 and [^211At]6. Tissues of interest were treated, and the radioactivity was measured in the same manner as above. Data are also shown as %ID/g or %ID.

[3] = Biodistribution after intravenous co-injection of [125I]5 and [211At]6 (Table S2); assay type: in vivo, normal mice (ddY); conditions: normal mice
Method: [^67Ga]Ga-PSMA-617 (37 kBq) and [^125I]5 (37 kBq) or [^125I]5 (37 kBq) and [^211At]6 (37 kBq) were intravenously co-administered into three or four normal mice at each timepoint (6 weeks male ddY mice, 28–30 g, Japan SLC, Inc., Hamamatsu, Japan). Mice were sacrificed at 10 min, 1 h, 4 h, and 24 h ([^67Ga]Ga-PSMA-617 and [^125I]5) or at 10 min, 1 h, 4 h, 12 h, and 24 h ([^125I]5 and [^211At]6) postinjection of the radiolabeled compounds. Tissues of interest were removed and weighed, and the radioactivity of ^67Ga and ^125I and ^125I and ^211At were determined with an auto well gamma counter (ARC-8001) and corrected for background radiation as described in the Cellular Uptake Experiments Section. To determine the amount and routes of the radioactivity excreted from the body for 24 h after the injection of radiolabeled compounds, mice were housed in metabolic cages (METABOLICA, SUGIYAMA-GEN Co., Ltd., Tokyo, Japan). Data are shown as the percentage of injected dose per gram of tissues (%ID/g) or %ID.

[4] = In vitro stability test in 0.1 M phosphate buffer; assay type: physicochemical; conditions: 0.1 M PB solution containing 10% ethanol, 37 °C, 24 h, mean ± SD for three samples
Method: samples were analyzed by RP-HPLC using a Cosmosil 5C18-AR-II (4.6 × 150 mm) at a flow rate of 1 mL/min with a gradient mobile phase of 60% methanol in water with 0.1% trifluoroacetic acid (TFA) to 80% methanol in water with 0.1% TFA for 20 min.
In vitro stability test in 0.1 M PB solution containing 10% ethanol was performed. The […]
and 97.1 ± 0.9% (mean ± SD for three samples) after incubating at 37 °C for 24 h, […]

O=C([O-])CN1CCN(CC(=O)[O-])CCN(CC(=O)NC(CCCCNC(=O)CCCc2ccc([211At])cc2)C(=O)NCC2CCC(C(=O)NC(Cc3ccc4ccccc4c3)C(=O)NCCCCC(NC(=O)NC(CCC(=O)O)C(=O)O)C(=O)O)CC2)CCN(CC(=O)[O-])CC1.[Ga+3] (stereo not shown) [[^211At]6]
Effect of excess 2-PMPA on cellular uptake [1]: significantly reduced
Effect of IPBA administration on radioactivity levels in tissues [2]: significantly decreased
In vivo dehalogenation (radioactivity in stomach and neck) [3]: minimal deiodination or deastatination
Biodistribution of radioactivity: Blood ([3]; i.v., 10 min after injection): 26.93 (0.47) % injected dose per gram
Biodistribution of radioactivity: Bone ([3]; i.v., 10 min after injection): 2.74 (0.53) % injected dose per gram
Biodistribution of radioactivity: Brain ([3]; i.v., 10 min after injection): 0.53 (0.06) % injected dose per gram
Biodistribution of radioactivity: Heart ([3]; i.v., 10 min after injection): 4.66 (0.37) % injected dose per gram
Biodistribution of radioactivity: Kidney ([3]; i.v., 10 min after injection): 5.19 (0.64) % injected dose per gram
Biodistribution of radioactivity: L. Intestine ([3]; i.v., 10 min after injection): 0.78 (0.05) % injected dose per gram
Biodistribution of radioactivity: Liver ([3]; i.v., 10 min after injection): 3.61 (0.05) % injected dose per gram
Biodistribution of radioactivity: Lung ([3]; i.v., 10 min after injection): 15.25 (2.29) % injected dose per gram
Biodistribution of radioactivity: Muscle ([3]; i.v., 10 min after injection): 0.99 (0.14) % injected dose per gram
Biodistribution of radioactivity: Neck ([3]; i.v., 10 min after injection): 0.04 (0.01) % injected dose
Biodistribution of radioactivity: Pancreas ([3]; i.v., 10 min after injection): 2.59 (0.24) % injected dose per gram
Biodistribution of radioactivity: S. Intestine ([3]; i.v., 10 min after injection): 1.42 (0.15) % injected dose per gram
Biodistribution of radioactivity: Spleen ([3]; i.v., 10 min after injection): 2.56 (0.44) % injected dose per gram
Biodistribution of radioactivity: Stomach ([3]; i.v., 10 min after injection): 0.85 (0.07) % injected dose
Biodistribution of radioactivity: Blood ([3]; i.v., 1 h after injection): 17.94 (1.58) % injected dose per gram
Biodistribution of radioactivity: Bone ([3]; i.v., 1 h after injection): 1.92 (0.21) % injected dose per gram
Biodistribution of radioactivity: Brain ([3]; i.v., 1 h after injection): 0.38 (0.12) % injected dose per gram
Biodistribution of radioactivity: Heart ([3]; i.v., 1 h after injection): 4.88 (0.26) % injected dose per gram
Biodistribution of radioactivity: Kidney ([3]; i.v., 1 h after injection): 4.36 (0.53) % injected dose per gram
Biodistribution of radioactivity: L. Intestine ([3]; i.v., 1 h after injection): 0.93 (0.15) % injected dose per gram
Biodistribution of radioactivity: Liver ([3]; i.v., 1 h after injection): 2.54 (0.38) % injected dose per gram
Biodistribution of radioactivity: Lung ([3]; i.v., 1 h after injection): 10.21 (2.55) % injected dose per gram
Biodistribution of radioactivity: Muscle ([3]; i.v., 1 h after injection): 1.25 (0.10) % injected dose per gram
Biodistribution of radioactivity: Neck ([3]; i.v., 1 h after injection): 0.04 (0.01) % injected dose
Biodistribution of radioactivity: Pancreas ([3]; i.v., 1 h after injection): 2.07 (0.45) % injected dose per gram
Biodistribution of radioactivity: S. Intestine ([3]; i.v., 1 h after injection): 1.59 (0.31) % injected dose per gram
Biodistribution of radioactivity: Spleen ([3]; i.v., 1 h after injection): 1.77 (0.11) % injected dose per gram
Biodistribution of radioactivity: Stomach ([3]; i.v., 1 h after injection): 0.84 (0.27) % injected dose
Biodistribution of radioactivity: Blood ([3]; i.v., 4 h after injection): 13.40 (1.08) % injected dose per gram
Biodistribution of radioactivity: Bone ([3]; i.v., 4 h after injection): 1.59 (0.09) % injected dose per gram
Biodistribution of radioactivity: Brain ([3]; i.v., 4 h after injection): 0.32 (0.06) % injected dose per gram
Biodistribution of radioactivity: Heart ([3]; i.v., 4 h after injection): 4.31 (0.39) % injected dose per gram
Biodistribution of radioactivity: Kidney ([3]; i.v., 4 h after injection): 4.44 (0.25) % injected dose per gram
Biodistribution of radioactivity: L. Intestine ([3]; i.v., 4 h after injection): 1.15 (0.35) % injected dose per gram
Biodistribution of radioactivity: Liver ([3]; i.v., 4 h after injection): 1.55 (0.24) % injected dose per gram
Biodistribution of radioactivity: Lung ([3]; i.v., 4 h after injection): 7.81 (1.92) % injected dose per gram
Biodistribution of radioactivity: Muscle ([3]; i.v., 4 h after injection): 1.27 (0.08) % injected dose per gram
Biodistribution of radioactivity: Neck ([3]; i.v., 4 h after injection): 0.04 (0.01) % injected dose
Biodistribution of radioactivity: Pancreas ([3]; i.v., 4 h after injection): 1.76 (0.35) % injected dose per gram
Biodistribution of radioactivity: S. Intestine ([3]; i.v., 4 h after injection): 1.30 (0.19) % injected dose per gram
Biodistribution of radioactivity: Spleen ([3]; i.v., 4 h after injection): 1.60 (0.25) % injected dose per gram
Biodistribution of radioactivity: Stomach ([3]; i.v., 4 h after injection): 0.83 (0.18) % injected dose
Biodistribution of radioactivity: Blood ([3]; i.v., 12 h after injection): 12.23 (1.51) % injected dose per gram
Biodistribution of radioactivity: Bone ([3]; i.v., 12 h after injection): 1.91 (0.32) % injected dose per gram
Biodistribution of radioactivity: Brain ([3]; i.v., 12 h after injection): 0.42 (0.07) % injected dose per gram
Biodistribution of radioactivity: Heart ([3]; i.v., 12 h after injection): 3.83 (0.57) % injected dose per gram
Biodistribution of radioactivity: Kidney ([3]; i.v., 12 h after injection): 5.31 (0.31) % injected dose per gram
Biodistribution of radioactivity: L. Intestine ([3]; i.v., 12 h after injection): 0.79 (0.16) % injected dose per gram
Biodistribution of radioactivity: Liver ([3]; i.v., 12 h after injection): 1.58 (0.12) % injected dose per gram
Biodistribution of radioactivity: Lung ([3]; i.v., 12 h after injection): 7.79 (0.46) % injected dose per gram
Biodistribution of radioactivity: Muscle ([3]; i.v., 12 h after injection): 1.37 (0.10) % injected dose per gram
Biodistribution of radioactivity: Neck ([3]; i.v., 12 h after injection): 0.18 (0.06) % injected dose
Biodistribution of radioactivity: Pancreas ([3]; i.v., 12 h after injection): 1.44 (0.82) % injected dose per gram
Biodistribution of radioactivity: S. Intestine ([3]; i.v., 12 h after injection): 1.06 (0.11) % injected dose per gram
Biodistribution of radioactivity: Spleen ([3]; i.v., 12 h after injection): 1.71 (0.33) % injected dose per gram
Biodistribution of radioactivity: Stomach ([3]; i.v., 12 h after injection): 1.04 (0.11) % injected dose
Biodistribution of radioactivity: Blood ([3]; i.v., 24 h after injection): 10.45 (0.19) % injected dose per gram
Biodistribution of radioactivity: Bone ([3]; i.v., 24 h after injection): 1.56 (0.33) % injected dose per gram
Biodistribution of radioactivity: Brain ([3]; i.v., 24 h after injection): 0.43 (0.14) % injected dose per gram
Biodistribution of radioactivity: Heart ([3]; i.v., 24 h after injection): 4.06 (1.41) % injected dose per gram
Biodistribution of radioactivity: Kidney ([3]; i.v., 24 h after injection): 3.50 (0.24) % injected dose per gram
Biodistribution of radioactivity: L. Intestine ([3]; i.v., 24 h after injection): 0.62 (0.15) % injected dose per gram
Biodistribution of radioactivity: Liver ([3]; i.v., 24 h after injection): 1.43 (0.07) % injected dose per gram
Biodistribution of radioactivity: Lung ([3]; i.v., 24 h after injection): 5.77 (0.84) % injected dose per gram
Biodistribution of radioactivity: Muscle ([3]; i.v., 24 h after injection): 1.28 (0.09) % injected dose per gram
Biodistribution of radioactivity: Neck ([3]; i.v., 24 h after injection): 0.14 (0.06) % injected dose
Biodistribution of radioactivity: Pancreas ([3]; i.v., 24 h after injection): 1.61 (0.22) % injected dose per gram
Biodistribution of radioactivity: S. Intestine ([3]; i.v., 24 h after injection): 0.81 (0.05) % injected dose per gram
Biodistribution of radioactivity: Spleen ([3]; i.v., 24 h after injection): 1.33 (0.43) % injected dose per gram
Biodistribution of radioactivity: Stomach ([3]; i.v., 24 h after injection): 1.31 (0.10) % injected dose
Biodistribution of radioactivity: Feces ([3]; i.v., excreted for 24 h after injection (column not printed safely), Table S2): 2.00 (0.33) % injected dose
Blood retention ([3]; profile resembled that of [125I]5): prolonged blood retention
Radiochemical purity after incubation (in vitro stability) [4]: 97.1 ± 0.9%
